Earlier results in patent US9308173B2, “Slow-releasing ophthalmic compositions comprising povidone iodine” (JIANGSU DEDA PHARMACEUTICALS CO., LTD., priority 2011, dated 2016).
Where two headings read alike, the source gives them in different places.

System: infected eyes

For Povidone iodine [PVP-I], the “Toxicity and irritation to the eye” value (0.02% eye drop (Grimes et al. 1992)) is given as “without the toxic affection and irritation”, the Germicidal effect (0.02% eye drop, infected eyes treated repeatedly (Grimes et al. 1992)) is given as “same germicidal effects as one with concentration of 5.0% povidone iodine” and the “Toxicity to the eye” value (0.04% eye drops, clinical disinfection of eyes) is given as “no noticeable toxicity”. The “Toxicity to the eye” value (eye drops at high concentrations of 5%) was “toxic effects that cannot be ignored”.
